These compounds were tested on Bcl-2 G-quadruplex (2F8U, 23-mer with 15,16-G-to-T mutations) (DNA, G4) GGGCGCGGGAGGAATTGGGCGGG (assay: CD melting at 265 nm). Conditions: 100 mM KCl; 10 mM Tris-HCl pH 7.2; 3 eq ligand, 2 µM DNA.

ΔTm | SMILES
6.3 °C | CC[n+]1c(/C=C/c2ccc3c(c2)c2ccccc2n3CCCCn2ccnc2)sc2ccccc21
3.0 °C | CC[n+]1c(/C=C/c2ccc3c(c2)c2ccccc2n3CCCCn2cncn2)sc2ccccc21
3.1 °C | CCn1c2ccccc2c2cc(/C=C/c3sc4ccccc4[n+]3CC)ccc21
